From ChEMBL document CHEMBL5518221, “Discovery and Optimization of Selective Brain-Penetrant EBP Inhibitors that Enhance Oligodendrocyte Formation” (J Med Chem, 2024)
Values after ≈ are worked out from the molar mass of the structure shown. Blank lines part the entries; values can stand above or below the compound they belong to.

What was measured:
[1] = Clearance in female C57BL/6 mouse at 1 mg/kg, iv measured after 0.083 hrs by LC-MS/MS analysis; conditions: in vivo
[2] = Unbound brain-to-plasma concentration ratio in female C57BL/6 mouse at 1 mg/kg, iv measured after 8 hrs by LC-MS/MS analysis
[3] = molecular target: Voltage-gated inwardly rectifying potassium channel KCNH2 (Homo sapiens, UniProt Q12809); test: Inhibition of human ERG expressed in CHO cells by whole cell patch clamp recording
[4] = Volume of distribution at steady state in male Sprague-Dawley rat at 1 mg/kg, iv measured after 8 hrs by LC-MS/MS analysis; conditions: in vivo
[5] = Dissociation constant, pKa of compound
[6] = Half-life in male Sprague-Dawley rat at 1 mg/kg, iv measured after 8 hrs by LC-MS/MS analysis; conditions: in vivo
[7] = in vitro; conditions: CD-1, mouse, pooled liver microsomes
[8] = Half-life in female C57BL/6 mouse at 1 mg/kg, iv measured after 0.083 hrs by LC-MS/MS analysis; conditions: in vivo
[9] = Unbound brain-to-plasma concentration ratio in male Sprague-Dawley rat at 1 mg/kg, iv measured after 8 hrs by LC-MS/MS analysis
[10] = Clearance in male Sprague-Dawley rat at 1 mg/kg, iv measured after 8 hrs by LC-MS/MS analysis; conditions: in vivo
[11] = Volume of distribution at steady state in female C57BL/6 mouse at 1 mg/kg, iv measured after 0.083 hrs by LC-MS/MS analysis; conditions: in vivo
[12] = molecular target: T1, 3-beta-hydroxysteroid-Delta(8),Delta(7)-isomerase (Mus musculus, UniProt P70245); test: Inhibition of EBP in mouse Oligodendrocyte precursor cell assessed as zymostenol accumulation by GCMS analysis
T1 sequence (P70245 whole entry): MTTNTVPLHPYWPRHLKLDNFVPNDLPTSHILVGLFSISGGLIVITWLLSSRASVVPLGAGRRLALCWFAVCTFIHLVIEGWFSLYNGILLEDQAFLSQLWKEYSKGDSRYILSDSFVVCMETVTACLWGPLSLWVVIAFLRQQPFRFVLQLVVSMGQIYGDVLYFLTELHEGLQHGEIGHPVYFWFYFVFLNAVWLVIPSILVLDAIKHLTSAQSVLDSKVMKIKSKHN

[13] = molecular target: 3-beta-hydroxysteroid-Delta(8),Delta(7)-isomerase (Homo sapiens, UniProt Q15125); test: Inhibition of EBP in human Mesenchymal stem cells assessed as zymostenol accumulation by GCMS analysis
[14] = test system: BCRP; test: in vitro; conditions: dog
[15] = in vivo; conditions: female, C57BL/6, mouse, po, 10 mg/kg
[16] = Unbound brain-to-plasma concentration ratio in male Sprague-Dawley rat at 5 mg/kg, po measured after 8 hrs by LC-MS/MS analysis
[17] = Protein binding in human plasma at 5 uM incubated for 6 hrs by equilibrium dialysis based HPLC analysis
[18] = Protein binding in Sprague-Dawley rat plasma at 5 uM incubated for 6 hrs by equilibrium dialysis based HPLC analysis
[19] = in vivo; conditions: female, C57BL/6, mouse, brain/plasma, 2 mg/kg
Description: Unbound brain-to-plasma concentration ratio in female C57BL/6 mouse at 2 mg/kg administered daily for 7 days and measured 8 hrs post last dose

[20] = Unbound brain-to-plasma concentration ratio in female C57BL/6 mouse at 10 mg/kg, po measured after 8 hrs by LC-MS/MS analysis
[21] = Unbound brain-to-plasma concentration ratio in female C57BL/6 mouse at 0.2 mg/kg administered daily for 7 days and measured 8 hrs post last dose
[22] = test system: MDR1; test: in vitro; conditions: dog, MDCK-MDR1
[23] = Half-life in male Sprague-Dawley rat at 5 mg/kg, po measured after 8 hrs by LC-MS/MS analysis; conditions: in vivo
[24] = Half-life in female C57BL/6 mouse at 10 mg/kg, po measured after 24 hrs by LC-MS/MS analysis; conditions: in vivo
[25] = Protein binding in CD-1 mouse plasma at 5 uM incubated for 6 hrs by equilibrium dialysis based HPLC analysis
[26] = Kinetic solubility of compound in PBS at pH 7.4
[27] = in vivo; conditions: male, Sprague-Dawley, rat, po, 5 mg/kg

Voltage-gated inwardly rectifying potassium channel KCNH2, sequence (Q12809 whole entry): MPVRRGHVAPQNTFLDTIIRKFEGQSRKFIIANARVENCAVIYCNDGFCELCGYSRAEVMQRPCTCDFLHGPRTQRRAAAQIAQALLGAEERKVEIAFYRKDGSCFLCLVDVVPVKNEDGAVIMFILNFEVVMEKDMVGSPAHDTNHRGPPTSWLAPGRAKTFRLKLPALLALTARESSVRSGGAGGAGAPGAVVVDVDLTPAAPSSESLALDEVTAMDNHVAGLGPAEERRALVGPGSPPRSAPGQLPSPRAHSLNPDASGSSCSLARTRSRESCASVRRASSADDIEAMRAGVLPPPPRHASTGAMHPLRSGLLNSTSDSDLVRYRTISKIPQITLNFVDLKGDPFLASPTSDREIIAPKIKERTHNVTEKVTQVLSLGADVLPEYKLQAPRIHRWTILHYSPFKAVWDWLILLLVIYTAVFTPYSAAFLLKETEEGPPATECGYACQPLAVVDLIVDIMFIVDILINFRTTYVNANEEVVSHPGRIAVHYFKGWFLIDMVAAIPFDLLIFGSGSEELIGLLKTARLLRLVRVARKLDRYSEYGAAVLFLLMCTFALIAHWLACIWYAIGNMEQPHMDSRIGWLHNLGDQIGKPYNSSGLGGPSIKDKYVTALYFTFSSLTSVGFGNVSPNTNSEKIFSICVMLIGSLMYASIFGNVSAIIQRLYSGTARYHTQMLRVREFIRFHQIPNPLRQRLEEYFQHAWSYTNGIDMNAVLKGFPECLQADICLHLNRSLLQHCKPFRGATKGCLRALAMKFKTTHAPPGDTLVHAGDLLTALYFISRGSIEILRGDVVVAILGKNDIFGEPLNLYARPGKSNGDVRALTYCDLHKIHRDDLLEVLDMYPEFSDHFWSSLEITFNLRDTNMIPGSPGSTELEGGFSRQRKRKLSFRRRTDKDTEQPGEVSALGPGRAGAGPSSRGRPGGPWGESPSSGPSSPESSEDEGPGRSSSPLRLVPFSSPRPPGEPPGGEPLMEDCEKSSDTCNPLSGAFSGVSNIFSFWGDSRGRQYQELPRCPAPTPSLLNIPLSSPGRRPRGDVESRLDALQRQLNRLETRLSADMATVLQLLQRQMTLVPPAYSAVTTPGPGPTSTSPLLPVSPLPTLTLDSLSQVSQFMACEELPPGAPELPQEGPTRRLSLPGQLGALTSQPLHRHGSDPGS
3-beta-hydroxysteroid-Delta(8),Delta(7)-isomerase (Homo sapiens, UniProt Q15125), sequence (Q15125 whole entry): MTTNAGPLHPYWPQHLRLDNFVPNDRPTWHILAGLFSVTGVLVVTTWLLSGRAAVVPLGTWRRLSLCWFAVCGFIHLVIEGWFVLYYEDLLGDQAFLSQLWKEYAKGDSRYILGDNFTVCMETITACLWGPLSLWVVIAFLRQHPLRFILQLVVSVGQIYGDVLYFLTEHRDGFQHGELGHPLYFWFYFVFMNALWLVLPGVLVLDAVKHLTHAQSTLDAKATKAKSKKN

clearance at […] [1]: 4 mL/min/kg | Kp uu at 8 h [2]: 0.95 | Vd at 8 h [4]: 8.3 L/kg | pKa [5]: 7.9 | half-life at 8 h [6]: 16 h | CLhep predicted at 1 h, 1 µM [7]: 17 mL/min/kg | half-life at […] [8]: 62 h | Kp uu at 8 h [9]: 1.59 | clearance at 8 h [10]: 6.3 mL/min/kg | Vd at […] [11]: 7.4 L/kg | EC50 [12]: 6 nM
SMILES: CCN1C(=O)N(c2ccc(C(F)(F)F)cc2)C(=O)C12CCN(CC1CCOCC1)CC2
IC50 [3]: 3000 nM

CLhep predicted at 1 h, 1 µM [7]: < 14 mL/min/kg | half-life at […] [8]: 1.8 h | EC50 [12]: 18 nM
SMILES: CCN1C(=O)N(c2ccc(C)cc2)C(=O)C12CCN(CC1CCOCC1)CC2

EC50 [13]: 669 nM | CLhep predicted at 1 h, 1 µM [7]: < 14 mL/min/kg | EC50 [12]: 315 nM
SMILES: CC(C)N1C(=O)N(c2ccc(C(F)(F)F)cc2)C(=O)C12CCN(CC1CCOCC1)CC2

Papp A→B [14]: 20 ×10⁻⁶ cm/s | clearance at […] [1]: 17 mL/min/kg | bioavailability at 24 h [15]: 68% | Kp uu at 8 h [16]: 0.5 | fraction unbound at 6 h, 5 µM [17]: 0.291 | Kp uu at 8 h [2]: 0.77 | fraction unbound at 6 h, 5 µM [18]: 0.3 | Kp uu at 176 h [19]: 0.6 | Kp uu at 8 h [20]: 0.72 | Vd at 8 h [4]: 6.2 L/kg | Kp uu at 176 h [21]: 1.7 | Papp A→B [22]: 15 ×10⁻⁶ cm/s | half-life at 8 h [23]: 5.1 h | half-life at 8 h [6]: 4.4 h | half-life at 24 h [24]: 3.3 h | CLhep predicted at 1 h, 1 µM [7]: < 14 mL/min/kg | fraction unbound at 6 h, 5 µM [25]: 0.364 | half-life at […] [8]: 3.9 h | Kp uu at 8 h [9]: 0.74 | clearance at 8 h [10]: 17 mL/min/kg | Vd at […] [11]: 5.2 L/kg | solubility kinetic [26]: 64 µM (≈ 26.3 µg/mL) | EC50 [12]: 8 nM | bioavailability at 8 h [27]: 42%
SMILES: CCN1C(=O)N(c2ccc(C3CC3)cc2)C(=O)C12CCN(CC1CCOCC1)CC2
IC50 [3]: 8200 nM

CLhep predicted at 1 h, 1 µM [7]: < 14 mL/min/kg | EC50 [12]: 20 nM
SMILES: CN1C(=O)N(c2ccc(C(F)(F)F)cc2)C(=O)C12CCN(CC1CCOCC1)CC2

EC50 [13]: 147 nM | CLhep predicted at 1 h, 1 µM [7]: 18 mL/min/kg | EC50 [12]: 36 nM
SMILES: O=C1N(c2ccc(C(F)(F)F)cc2)CCC12CCN(CC1CCOCC1)CC2

pKa [5]: 8.2 | EC50 [12]: 41 nM
SMILES: CCN1C(=O)N(c2ccc(C(F)(F)F)cc2)C(=O)C12CCN(C(C)C1CCOCC1)CC2 (stereo not given)
IC50 [3]: 2900 nM

CLhep predicted at 1 h, 1 µM [7]: 35 mL/min/kg | half-life at […] [8]: 0.8 h | EC50 [12]: 16 nM
SMILES: CCN1C(=O)N(c2cc(Cl)cc(C#N)c2)C(=O)C12CCN(CC1CCOCC1)CC2

CLhep predicted at 1 h, 1 µM [7]: 25 mL/min/kg | half-life at […] [8]: 5.7 h
SMILES: CCN1C(=O)N(c2ccc(Cl)cc2)C(=O)C12CCN(CC1CCOCC1)CC2

pKa [5]: 8.1 | EC50 [12]: 43 nM
SMILES: CCN1C(=O)N(c2ccc(C(F)(F)F)cc2)C(=O)C12CCN(CC1CCS(=O)(=O)CC1)CC2
IC50 [3]: 73000 nM

pKa [5]: 8.1 | EC50 [12]: 95 nM
SMILES: CCN1C(=O)N(c2ccc(C(F)(F)F)cc2)C(=O)C12CCN(C1CCCOCC1)CC2 (stereo not given)
IC50 [3]: 850 nM

Papp A→B [14]: 20 ×10⁻⁶ cm/s | clearance at […] [1]: 9.9 mL/min/kg | bioavailability at 24 h [15]: 47% | Kp uu at 8 h [16]: 0.58 | fraction unbound at 6 h, 5 µM [17]: 0.296 | Kp uu at 8 h [2]: 0.56 | fraction unbound at 6 h, 5 µM [18]: 0.278 | Kp uu at 8 h [20]: 0.62 | Vd at 8 h [4]: 8.3 L/kg | Papp A→B [22]: 14 ×10⁻⁶ cm/s | half-life at 8 h [6]: 12 h | half-life at 24 h [24]: 5.3 h | CLhep predicted at 1 h, 1 µM [7]: < 14 mL/min/kg | fraction unbound at 6 h, 5 µM [25]: 0.376 | half-life at […] [8]: 5.7 h | Kp uu at 8 h [9]: 0.6 | clearance at 8 h [10]: 9.2 mL/min/kg | Vd at […] [11]: 5.1 L/kg | solubility kinetic [26]: 29 µM (≈ 12.9 µg/mL) | bioavailability at 8 h [27]: 13%
SMILES: CCN1C(=O)N([C@H]2CC[C@H](C(F)(F)F)CC2)C(=O)C12CCN(CC1CCOCC1)CC2
IC50 [3]: 8000 nM

CLhep predicted at 1 h, 1 µM [7]: < 14 mL/min/kg
SMILES: O=C1N(c2ccc(C(F)(F)F)cc2)C(=O)C2(CCN(CC3CCOCC3)CC2)N1C1CC1

pKa [5]: 5.7 | EC50 [12]: 68 nM
SMILES: CCN1C(=O)N(c2ccc(C(F)(F)F)cc2)C(=O)C12CCN(CC1(F)CCOCC1)CC2
IC50 [3]: 65000 nM

pKa [5]: 8.2 | EC50 [12]: 364 nM
SMILES: CCN1C(=O)N(c2ccc(C(F)(F)F)cc2)C(=O)C12CCN(C1CCOCC1)CC2
IC50 [3]: 4400 nM

CLhep predicted at 1 h, 1 µM [7]: < 14 mL/min/kg | EC50 [12]: 1000 nM
SMILES: O=C1NC2(CCN(CC3CCOCC3)CC2)C(=O)N1c1ccc(C(F)(F)F)cc1

CLhep predicted at 1 h, 1 µM [7]: 47 mL/min/kg | half-life at […] [8]: 1.2 h | EC50 [12]: 9 nM
SMILES: CCN1C(=O)N(c2cccc(C3CC3)c2)C(=O)C12CCN(CC1CCOCC1)CC2
